Test results as given in article PMC10974743, “Design, Synthesis, and Biological Evaluation of Novel Phenoxy Acetic Acid Derivatives as Selective COX-2 Inhibitors Coupled with Comprehensive Bio-Pharmacological Inquiry, Histopathological Profiling, and Toxicological Scrutiny” (Molecules, 2024).
“Also recorded” adds a separate entry of the source. Marks after values point to notes of the source that are not given here.

Key:
TNF-α = TNF-α content of paw exudate by ELISA, carrageenan paw edema model; format: in vivo, Sprague Dawley rats; conditions: vs carrageenan group
Procedure: (§1) ELISA assessment assays were conducted as cited (Supplementary Materials, page 53).
(§2) In-vivo anti-inflammatory activity […]
(§3) cervical dislocation. […] The percentage
(§4) Weight of the left paw] ×100.
(§5) Assessment of inflammatory biomarkers using ELISA […]
(§6) content, using enzyme -linked immunosorbent assay (ELISA). The ELISA kits were purchased from CLOUD -CLONE CORP (CCC, USA) (Cat# SEA133Ra) and MyBioSource company (British Columbia, Canada) (Cat# MBS730592) respectively, and the assays were performed following the manufacturer' s instructions. Additionally, the protein content of the exudates was determined using the Bradford method.

PGE2 = PGE2 content of paw exudate by ELISA, carrageenan paw edema model; format: in vivo, Sprague Dawley rats; conditions: vs carrageenan group
Procedure: as §1, §2, §3, §4, §5, §6

[1] = test system: nociceptive responses on hot plate; assay: Hot plate latency test (analgesic activity); format: in vivo, rats; conditions: for Hot plate latency period: plate 50 °C, mean ± SD, n = 6
Procedure: The hot plate latency test was performed according to the following procedures (Supplementary Materials, page 54). […]
In summary, thirty rats
The normal control group received 1% CMC, while the remaining groups were administered their respective reference or test compounds. Each rat was gently positioned on a heated plate set at 50 ◦C. The latency period for nociceptive responses, such as paw licking or jumping off the hot plate, was recorded at 30-, 60-, 90-, and 120 minutes post-administration of the reference drugs, test […]

[2] = test system: paw tissue, carrageenan paw edema model; assay: Histopathological examination of paws, inflammatory cell infiltration score; format: in vivo, rats; conditions: for Paw histopathological finding: H&E staining, carrageenan paw edema; for Reduction in inflammatory cell infiltration score: vs carrageenan group, paw, 5 hours
Procedure: The histopathological assessments were performed according to the following procedures (Supplementary Materials, page 54). […]
Histopathological examination
Thirty-six rats were separated into six groups of six rats each for histological assessment […]
groupings consisted of a control group, a carrageenan group, two groups for the reference drugs […]
protocols that were utilized in the in-vivo anti-inflammatory activity test were used. After a duration of 5 hours, the animals were euthanized, and their left paws were amputated. The paws were preserved in 10% neutral buffered formalin, trimmed, washed, dehydrated in increasing concentrations of ethyl alcohol, clarified in xylene, and ultimately embedded in paraffin. They were then sliced into 4-6µ thick slices, stained with Hematoxylin and Eosin, and examined under a light microscope. A scoring system was used to evaluate the degree of inflammation, dividing it into six categories ranging from 0 indicating no inflammation to 5 indicating severe inflammation.
Each score corresponded to a certain level of inflammation: 0 for no inflammation, 1 for mild inflammation, 2 for mild to moderate inflammation, 3 for moderate inflammation, 4 for moderate to severe inflammation, and 5 for severe inflammation.

[3] = Assessment of liver and kidney function (serum ALT, AST, creatinine, urea); format: in vivo, rats; set-up: Urea: unit not given here; conditions: mean ± SD; for ALT / AST / AST/ALT / Urea: n = 6; for Creatinine: n = 6, in mg/dL (unit assumed)
Procedure: These assessments were conducted following the manufacturer’s instructions (Supplementary Materials, page 55).
In-vivo anti-inflammatory activity
as §3, §4
Assessment of inflammatory biomarkers using ELISA

[4] = test system: carrageenan-induced paw edema; assay: Carrageenan paw edema test (paw thickness, paw weight); conditions: for Paw thickness difference: oral; for Paw thickness difference / Paw Weight Increase: mean ± SD, n = 6; for Paw Weight Increase: right vs left paw, after 5 h
Procedure: The carrageenan paw edema test was conducted following established procedures as detailed (Supplementary Materials, page 53).
The carrageenan paw edema test was conducted following established procedures. In summary, seventy-two rats were randomly assigned to twelve groups, each comprising six rats.
These groups included normal controls, carrageenan controls (both receiving the vehicle; 1%
Acute inflammation was induced in the right hind paws of all rats one hour after oral administration of the respective compounds or vehicle. This was achieved by injecting a freshly prepared 0.1 mL carrageenan suspension (1% in normal saline) subplantarly into the right hind paw, except for the normal control group, which received a saline injection. Paw thickness was measured hourly (Ct) until the fifth hour (C5) post-carrageenan injection (C0). The hourly increase in paw thickness (paw thickness difference) was calculated by subtracting the initial measurement (C0) from the thickness at each hour (Ct), and the results were presented as the mean increase in paw thickness (mm). To evaluate anti-inflammatory effects, the percentage of inhibition for each standard and test compound was determined using the formula: percentage of inhibition (%) = [(Paw thickness difference of carrageenan group - Paw thickness difference of treated)/ Paw thickness difference of carrageenan group] × 100. […] The paws were then excised and weighed (both left and right). The percentage of weight increase between the left and right paws of each animal was calculated using the equation: Percentage of weight increase = [(Weight of the right paw - Weight of the left paw) / Weight of the left paw] ×100.

ovine COX-1 = molecular target: T1, ovine COX-1 (Ovis aries, UniProt P05979); assay: In vitro COX-1 inhibition assay (Cayman colorimetric COX inhibitor screening kit)
T1 sequence (P05979 25-600): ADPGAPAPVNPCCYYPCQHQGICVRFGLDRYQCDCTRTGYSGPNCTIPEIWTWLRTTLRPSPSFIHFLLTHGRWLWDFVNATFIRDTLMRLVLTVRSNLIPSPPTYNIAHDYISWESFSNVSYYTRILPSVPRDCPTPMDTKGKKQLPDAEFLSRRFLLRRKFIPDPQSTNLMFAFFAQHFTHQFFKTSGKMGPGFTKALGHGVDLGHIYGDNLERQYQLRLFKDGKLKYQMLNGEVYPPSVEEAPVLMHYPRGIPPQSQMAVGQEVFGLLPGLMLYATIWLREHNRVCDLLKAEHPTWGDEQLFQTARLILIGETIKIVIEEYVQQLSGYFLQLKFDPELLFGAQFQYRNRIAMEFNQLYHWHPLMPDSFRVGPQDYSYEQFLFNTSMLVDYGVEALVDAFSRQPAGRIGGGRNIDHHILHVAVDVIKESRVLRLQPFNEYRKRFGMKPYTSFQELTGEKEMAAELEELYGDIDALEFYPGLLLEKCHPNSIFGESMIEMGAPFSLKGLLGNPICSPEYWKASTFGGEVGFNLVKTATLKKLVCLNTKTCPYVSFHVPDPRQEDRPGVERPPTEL
Procedure: (§7) The in vitro enzyme assays were performed at the Biochemistry Department, Cairo
(§8) General Hospital, Egypt. Cayman® colorimetric COX (ovine) inhibitor screening assay kit (Item
(§9) enzymes in presence of all newly compounds. Generally, this kit is dependent on the reductive
(§10) reaction of COX. A specific antibody binds to PGH2 produced by COX and is further quantified
(§11) by the ELISA technique as previously reported. After that, the selectivity index (SI) was calculated
as the following equation:
𝐒𝐞𝐥𝐞𝐜𝐭𝐢𝐯𝐢𝐭𝐲 𝐢𝐧𝐝𝐞𝐱 (𝐒𝐈) = 𝐈𝐂₅₀𝐨𝐟 𝐂𝐎𝐗 − 𝟏

human COX-2 = molecular target: T2, human COX-2 (Homo sapiens, UniProt P35354); assay: In vitro COX-2 inhibition assay (Cayman colorimetric COX inhibitor screening kit); conditions: for IC50: COX-2 IC50, mean ± SEM, n = 3
T2 sequence (P35354 18-604): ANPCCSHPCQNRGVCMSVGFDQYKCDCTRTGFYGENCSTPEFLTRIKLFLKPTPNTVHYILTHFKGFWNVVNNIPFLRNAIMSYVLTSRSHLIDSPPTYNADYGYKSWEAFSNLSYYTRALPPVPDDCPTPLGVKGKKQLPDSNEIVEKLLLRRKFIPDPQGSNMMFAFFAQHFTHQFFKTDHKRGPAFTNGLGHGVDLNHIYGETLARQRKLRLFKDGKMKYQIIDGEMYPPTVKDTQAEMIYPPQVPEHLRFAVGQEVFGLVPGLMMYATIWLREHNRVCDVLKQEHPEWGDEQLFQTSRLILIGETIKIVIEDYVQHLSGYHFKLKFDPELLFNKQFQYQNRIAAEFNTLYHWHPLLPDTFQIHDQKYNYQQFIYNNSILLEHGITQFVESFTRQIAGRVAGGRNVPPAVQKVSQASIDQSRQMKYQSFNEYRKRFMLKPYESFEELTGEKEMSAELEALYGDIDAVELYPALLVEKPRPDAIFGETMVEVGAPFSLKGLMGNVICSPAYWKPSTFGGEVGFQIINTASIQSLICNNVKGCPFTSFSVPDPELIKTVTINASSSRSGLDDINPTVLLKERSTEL
Procedure: as §7, §8, §9, §10, §11
as the following equation:
𝐒𝐞𝐥𝐞𝐜𝐭𝐢𝐯𝐢𝐭𝐲 𝐢𝐧𝐝𝐞𝐱 (𝐒𝐈) = 𝐈𝐂₅₀𝐨𝐟 𝐂𝐎𝐗 − 𝟏

gastric mucosa = assay: Evaluation of ulcerogenic effects (macroscopic scores and gastric histopathology); conditions: for Gastric mucosa histopathological finding: H&E staining; for Ulcer Number Score / Ulcer Severity Score: mean ± SD; for Ulcer Number Score: n = 6; for Ulcer Severity Score: n = 6, scale 0 to 5
Procedure: The assessment of ulcerogenic effects was conducted following established procedures [42, 57]
Following the experimental period, the animals were euthanized using pentobarbital sodium (100 mg/kg), and blood was collected via jugular vein exsanguination for later evaluation of liver and kidney function, and subsequently sacrificed by cervical dislocation. […] Following this, the animals' stomachs were removed, inflated, and opened along the greater curvature to evaluate ulcerogenic effects.
B: Ulcer lesion severity scoring system
2.5 More than 10 small ulcers
3 1 marked ulcer plus 0 to 4 small ulcers
3.5 1 marked ulcer plus 5 or more small ulcers
4 2 marked ulcers plus 0 to 4 small ulcers
4.5 2 marked ulcers plus 5 or more small ulcers
5 3 or more marked ulcers
The statistical analysis of the data was conducted using GraphPad Prism 9.5.1 Demo
(GraphPad Software, San Diego, CA). One -way analysis of variance (ANOVA) was utilized to
evaluate differences among the various groups, except for paw edema volume, which un derwent
analysis using two -way ANOVA. Post -hoc analysis was performed using Tukey's multiple
significance set at P < 0.05

COX-2 = conditions: cited from earlier work
[5] = compared to the normal control group

Compound | Reduction of TNF-α exudate content (TNF-α) | Reduction of PGE2 exudate content (PGE2) | Hot plate latency period ([1]; 30 min post-administration) | Hot plate latency period ([1]; 60 min post-administration) | Hot plate latency period ([1]; 90 min post-administration) | Hot plate latency period ([1]; 120 min post-administration) | Paw histopathological finding [2] | Reduction in inflammatory cell infiltration score [2] | ALT [3] | AST [3] | AST/ALT [3] | Urea [3] | Creatinine [3] | Paw thickness difference ([4]; 1st h after carrageenan) | Percentage of inhibition of paw thickness ([4]; 1st h, vs carrageenan group) | Paw thickness difference ([4]; 2nd h after carrageenan) | Percentage of inhibition of paw thickness ([4]; 2nd h, vs carrageenan group) | Paw thickness difference ([4]; 3rd h after carrageenan) | Percentage of inhibition of paw thickness ([4]; 3rd h, vs carrageenan group) | Paw thickness difference ([4]; 4th h after carrageenan) | other results
O=C(O)COc1ccc(Br)cc1C=NNC(=O)Cc1ccccc1 [Compound 7b, 2-(4-Bromo-2-((2-(2-phenylacetyl)hydrazineylidene)methyl)phenoxy)acetic acid] | 64.88% | 57.07% | 8.88 ± 0.29 ^ac | 10.35 ± 0.35 ^ac | 12.09 ± 0.29 ^ac | 13.71 ± 0.31 ^a | dermal infiltration by a moderate number of mononuclear inflammatory cells; also recorded: moderate infiltration of mononuclear inflammatory cells in the dermis | 62.96% | 89.13 ± 8.53 IU/L | 97.59 ± 6.19 IU/L | 1.10 ± 0.12 | 27.16 ± 1.53 | 0.68 ± 0.05 | 0.65 ± 0.16 mm | 67.23% | 1.08 ± 0.21 mm | 67.11% | 1.64 ± 0.13 mm | 61.23% | 1.90 ± 0.19 mm | Increase in latency period ([1]; 30 min mark): 37.67%; Increase in latency period ([1]; 120 min mark): 44.90%; Percentage of inhibition of paw thickness ([4]; 4th h, vs carrageenan group): 62.42%; Paw thickness difference ([4]; 5th h after carrageenan): 1.95 ± 0.19 mm; Paw Weight Increase [4]: 33.07 ± 1.88 ^ab %; Inhibition of percentage of paw weight increase ([4]; vs carrageenan group): 64.84%; IC50 (ovine COX-1): 5.93 ± 0.12 µM; IC50 (human COX-2): 0.06 ± 0.01 µM; Gastric mucosa histopathological finding (gastric mucosa): infiltration of gastric mucosa by a few numbers of mononuclear inflammatory cells; Ulcer Number Score (gastric mucosa): 0.67 ± 0.52; Ulcer Severity Score (gastric mucosa): 0.42 ± 0.38
Cc1cccc(Nc2ccccc2C(=O)O)c1C [Mefenamic acid, mefenamic acid, reference compound] | 60.09% | 59.37% | 9.95 ± 0.35 ^ab | 11.58 ± 0.25 ^ab | 12.83 ± 0.36 ^ab | 13.73 ± 0.42 ^a | infiltration of dermis by high number of inflammatory cells mainly lymphocytes and eosinophils; also recorded: significant cutaneous infiltration by inflammatory cells | 37.04% | 88.84 ± 6.09 IU/L | 97.51 ± 8.08 IU/L | 1.10 ± 0.15 | 27.58 ± 2.08 | 0.72 ± 0.05 | 1.22 ± 0.19 mm | 38.43% | 2.27 ± 0.11 mm | 31.22% | 2.86 ± 0.11 mm | 32.37% | 3.22 ± 0.19 mm | Increase in latency period ([1]; 60 min mark): 58.38%; IC50 (COX-2): 5.3 µM; Percentage of inhibition of paw thickness ([4]; 4th h, vs carrageenan group): 36.16%; Paw thickness difference ([4]; 5th h after carrageenan): 3.51 ± 0.07 mm; Percentage of inhibition of paw thickness ([4]; 5th h, vs carrageenan group): 33.89%; Paw Weight Increase [4]: 34.08 ± 2.27 ^ab %; IC50 (ovine COX-1): 29.9 ± 0.09 µM; SI (COX-2 selectivity index) (human COX-2; COX-1 (IC50)/COX-2 (IC50)): 15.10; IC50 (human COX-2): 1.98 ± 0.02 µM; Gastric mucosa histopathological finding (gastric mucosa): ulcer formation with desquamation of gastric mucosal epithelium; also recorded: ulcer development and desquamation of the stomach mucosal epithelium; Increase in ulcer number (gastric mucosa; [5]): 233.33%; Increase in ulcer severity score (gastric mucosa; [5]): 366.67%; Ulcer Number Score (gastric mucosa): 1.67 ± 0.82 ^a; Ulcer Severity Score (gastric mucosa): 1.17 ± 0.61 ^a
